Test results taken from article PMC10817512, “OSMAC-Based Discovery and Biosynthetic Gene Clusters Analysis of Secondary Metabolites from Marine-Derived Streptomyces globisporus SCSIO LCY30” (Marine Drugs, 2023).
In brackets after ≈: the same amount, converted by molar mass. Read-outs that look alike come from different tables or passages of the source. Blank lines part the entries; values can stand above or below the compound they belong to.

What was measured:
[1] = test system: human umbilical vein endothelial cell line HUVEC; test: Cell growth inhibitory (cytotoxic) activity assay; type: cell-based
Description: (§1) The cell growth inhibitory activities of compounds 1–3 against fourteen different human cell lines (human liver cell line LX-2; hepatocellular cancer line HEPG2; human intestinal epithelial cell line NCM460; colorectal cancer cell lines HCT116 and SW480; normal human breast cell line MCF-10A; breast cancer cell line MCF7; triple-negative breast cancer cell lines MDA-MB-231, MDA-MB-468, and Bt-549; human umbilical vein endothelial cell line; lung cancer cell line A549; cervical cancer cell line Hela; and cholangiocarcinoma cell line RBE) were tested according to the previously published methods. SPSS software version 22.0 was used to test the IC50 values. Cisplatin and adriamycin were used as positive control agents, and all the experiments were carried out in triplicate.

[2] = test system: human intestinal epithelial cell line NCM460; test: Cell growth inhibitory (cytotoxic) activity assay; type: cell-based; details: NCM460 (normal intestinal epithelial cell line)
Description: as §1

[3] = test system: normal human breast cell line MCF-10A; test: Cell growth inhibitory (cytotoxic) activity assay; type: cell-based; details: MCF-10A (normal human breast cell line)
Description: as §1

[4] = test system: human liver cell line LX-2; test: Cell growth inhibitory (cytotoxic) activity assay; type: cell-based; details: LX-2 (human liver cell line)
Description: as §1

[5] = test system: cholangiocarcinoma cell line RBE; test: Cell growth inhibitory (cytotoxic) activity assay; type: cell-based, human
Description: as §1

[6] = test system: hepatocellular cancer line HEPG2; test: Cell growth inhibitory (cytotoxic) activity assay; type: cell-based, human
Description: as §1

[7] = test system: lung cancer cell line A549; test: Cell growth inhibitory (cytotoxic) activity assay; type: cell-based, human; details: Homo sapiens
Description: as §1

[8] = test system: triple-negative breast cancer cell line MDA-MB-468; test: Cell growth inhibitory (cytotoxic) activity assay; type: cell-based, human; details: MDA-MB-468 (TNBC)
Description: as §1

[9] = test system: colorectal cancer cell line SW480; test: Cell growth inhibitory (cytotoxic) activity assay; type: cell-based, human; details: SW480 (colorectal cancer)
Description: as §1

[10] = test system: colorectal cancer cell line HCT116; test: Cell growth inhibitory (cytotoxic) activity assay; type: cell-based, human
Description: as §1

[11] = test system: triple-negative breast cancer cell line Bt-549; test: Cell growth inhibitory (cytotoxic) activity assay; type: cell-based, human; details: Bt-549 (TNBC)
Description: as §1

[12] = test system: cervical cancer cell line Hela; test: Cell growth inhibitory (cytotoxic) activity assay; type: cell-based, human
Description: as §1

[13] = test system: triple-negative breast cancer cell line MDA-MB-231; test: Cell growth inhibitory (cytotoxic) activity assay; type: cell-based, human; details: MDA-MB-231 (TNBC)
Description: as §1

[14] = test system: Staphylococcus simulans AKA1; test: Antibacterial MIC, CLSI microdilution; type: cell-based; details: Staphylococcus simulans AKA1; 37 °C, 16–18 h; read-out: MIC
[15] = test system: Staphylococcus aureus ATCC 29213; test: Antibacterial MIC, CLSI microdilution; type: cell-based; details: ATCC29213; Staphylococcus aureus ATCC 29213; 37 °C, 16–18 h; read-out: MIC
Description: (§2) An antibacterial activity test of compounds 1–3 was conducted according to a standard protocol provided by the Clinical and Laboratory Standards Institute (CLSI). Sixteen bacterial strains were used, including Staphylococcus aureus ATCC 29213, Staphylococcus aureus 16339, Staphylococcus aureus 1862, Staphylococcus aureus 3090, Staphylococcus aureus 991, Staphylococcus aureus 669, Staphylococcus aureus 745324, Staphylococcus aureus 16162, Staphylococcus aureus (cfr) GDE4P037P, Enterococcus faecalis ATCC 29212, Enterococcus faecalis 36950, Micrococcus luteus ML01, MRSA, Bacillus subtilis BS01, Enterococcus gallinarum 5F52C, and Enterococcus faecium 36711. Compounds 1–3 were dissolved in DMSO at a concentration of 3.2 mg/mL, and vancomycin and ampicilin were used as antibacterial control agents. […] All the assays were carried out in triplicate.

[16] = test system: Bacillus subtilis BS01; test: Antibacterial MIC, CLSI microdilution; type: cell-based; details: Bacillus subtilis BS01; 37 °C, 16–18 h; read-out: MIC
Description: as §2

[17] = test system: Staphylococcus aureus 991; test: Antibacterial MIC, CLSI microdilution; type: cell-based; details: Staphylococcus aureus 991; 37 °C, 16–18 h; read-out: MIC
Description: as §2

[18] = test system: Staphylococcus aureus 669; test: Antibacterial MIC, CLSI microdilution; type: cell-based; details: Staphylococcus aureus 669; 37 °C, 16–18 h; read-out: MIC
Description: as §2

[19] = test system: Staphylococcus aureus 16162; test: Antibacterial MIC, CLSI microdilution; type: cell-based; details: Staphylococcus aureus 16162; 37 °C, 16–18 h; read-out: MIC
Description: as §2

[20] = test system: Staphylococcus aureus 1862; test: Antibacterial MIC, CLSI microdilution; type: cell-based; details: Staphylococcus aureus 1862; 37 °C, 16–18 h; read-out: MIC
Description: as §2

[21] = test system: Enterococcus faecalis ATCC 29212; test: Antibacterial MIC, CLSI microdilution; type: cell-based; details: ATCC29212; Enterococcus faecalis ATCC 29212; 37 °C, 16–18 h; read-out: MIC
Description: as §2

[22] = test system: Staphylococcus aureus 3090; test: Antibacterial MIC, CLSI microdilution; type: cell-based; details: Staphylococcus aureus 3090; 37 °C, 16–18 h; read-out: MIC
Description: as §2

[23] = test system: Enterococcus gallinarum 5F52C; test: Antibacterial MIC, CLSI microdilution; type: cell-based; details: Enterococcus gallinarum 5F52C; 37 °C, 16–18 h; read-out: MIC
Description: as §2

[24] = test system: Staphylococcus aureus 16339; test: Antibacterial MIC, CLSI microdilution; type: cell-based; details: Staphylococcus aureus 16339; 37 °C, 16–18 h; read-out: MIC
Description: as §2

[25] = test system: Enterococcus faecium 36711; test: Antibacterial MIC, CLSI microdilution; type: cell-based; details: Enterococcus faecium 36711; 37 °C, 16–18 h; read-out: MIC
Description: as §2

[26] = test system: Staphylococcus aureus (cfr) GDE4P037P; test: Antibacterial MIC, CLSI microdilution; type: cell-based; details: Staphylococcus aureus (cfr) GDE4P037P; 37 °C, 16–18 h; read-out: MIC
Description: as §2

[27] = test system: Enterococcus faecalis 36950; test: Antibacterial MIC, CLSI microdilution; type: cell-based; details: Enterococcus faecalis 36950; 37 °C, 16–18 h; read-out: MIC
Description: as §2

[28] = test system: Staphylococcus aureus 745324; test: Antibacterial MIC, CLSI microdilution; type: cell-based; details: Staphylococcus aureus 745324; 37 °C, 16–18 h; read-out: MIC
Description: as §2

[29] = test system: Micrococcus luteus ML01; test: Antibacterial MIC, CLSI microdilution; type: cell-based; details: Micrococcus luteus, ML01, Micrococcus luteus ML01; 37 °C, 16–18 h; read-out: MIC
Description: as §2

[30] = test system: MRSA; test: Antibacterial MIC, CLSI microdilution; type: cell-based, Staphylococcus aureus; details: Staphylococcus aureus, 37 °C, 16–18 h, read-out: MIC
Description: as §2

[31] = test system: breast cancer cell line MCF7; test: Cell growth inhibitory (cytotoxic) activity assay; type: cell-based, human
Description: SPSS software version 22.0 was used to test the IC50 values.

Structure (SMILES): COc1cccc2c1C(=O)c1c(O)c3c(c(O)c1C2=O)C[C@@](O)(C(=O)CO)C[C@@H]3O[C@H]1C[C@H](N)[C@H](O)[C@H](C)O1 [Adriamycin, reference compound]
IC50 [1]: 12 µM | IC50 ([2]; Homo sapiens): 3.89 µM | IC50 [3]: 3.72 µM | IC50 [4]: 1.36 µM | IC50 ([5]; Homo sapiens): 4.26 µM | IC50 ([6]; Homo sapiens): 15.5 µM | IC50 [7]: 1.51 µM | IC50 ([8]; Homo sapiens): 3.16 µM | IC50 ([9]; Homo sapiens): 17.5 µM | IC50 ([10]; Homo sapiens, HCT-116): 1.54 µM | IC50 ([11]; Homo sapiens): 3.75 µM | IC50 ([12]; Homo sapiens): 7.02 µM | IC50 ([13]; Homo sapiens): 4.04 µM

MIC [14]: > 64 µg/mL | MIC [15]: 1 µg/mL (≈ 2.86 µM) | MIC [16]: 0.13 µg/mL (≈ 0.372 µM) | MIC [17]: 4 µg/mL (≈ 11.4 µM) | MIC [18]: 8 µg/mL (≈ 22.9 µM) | MIC [19]: 16 µg/mL (≈ 45.8 µM) | MIC [20]: 4 µg/mL (≈ 11.4 µM) | MIC [21]: 1 µg/mL (≈ 2.86 µM) | MIC [22]: 16 µg/mL (≈ 45.8 µM) | MIC [23]: 8 µg/mL (≈ 22.9 µM) | MIC [24]: 64 µg/mL (≈ 183 µM) | MIC [25]: > 64 µg/mL | MIC [26]: 16 µg/mL (≈ 45.8 µM) | MIC [27]: > 64 µg/mL | MIC [28]: 4 µg/mL (≈ 11.4 µM) | MIC [29]: 0.13 µg/mL (≈ 0.372 µM) | MIC [30]: 32 µg/mL (≈ 91.6 µM)
Structure (SMILES): CC1(C)S[C@@H]2[C@H](NC(=O)[C@H](N)c3ccccc3)C(=O)N2[C@H]1C(=O)O [Ampicillin, reference compound]

Structure (SMILES): N.N.[Cl][Pt][Cl] [Cisplatin, reference compound]
IC50 [31]: 4.56 µM | IC50 [1]: 7.7 µM | IC50 [2]: 3.17 µM | IC50 [3]: 6.43 µM | IC50 [4]: 12.1 µM | IC50 [5]: 13.5 µM | IC50 [6]: 11 µM | IC50 [8]: 8.35 µM | IC50 [9]: 1.82 µM | IC50 [10]: 4.83 µM | IC50 [11]: 7.54 µM | IC50 [12]: 7.62 µM | IC50 [13]: 15.7 µM
